# Measurements as given in ChEMBL document CHEMBL3885861, “Open TG-GATES”.
# Organism: Rattus norvegicus
# Test: Open TG-GATES - Regimen: Single
# Format: toxicity, organism-based, Sprague-Dawley
# Design: regimen Single, gender Male, age 6 weeks
# Details: in vivo, po, 0 mg/kg, route gavage, dose level Control; for APTT / Bas / Eos / Fbg / Hb / Ht / Lym / MCH / MCHC / MCV / Mono / Neu / PT / Plat / RBC / Ret / WBC: tissue Blood; for KIDNEY_L / KIDNEY_R / KIDNEY_TOTAL: tissue Kidney; for LIVER: tissue Liver; for A/G / ALP / ALT / AST / BUN / CRE / Ca / Cl / DBIL / GLC / IP / K / LDH / Na / PL / RALB / TBIL / TC / TG / TP / gamma-GTP: tissue Plasma
compound,measurement,setting,value
Cc1cccc(C)c1OCC(C)N (configuration not stated) [MEXILETINE],TERMINAL_BW,3 h,222.3 g
same,APTT,3 h,22.2 s
same,Bas,3 h,0%
same,Eos,3 h,0.8%
same,Fbg,3 h,310.6 mg/dL
same,Hb,3 h,12.8 g/dL
same,Ht,3 h,39.4%
same,Lym,3 h,80.6%
same,MCH,3 h,21 pg
same,MCHC,3 h,32.4%
same,MCV,3 h,64.8 fL
same,Mono,3 h,1.8%
same,Neu,3 h,16.2%
same,PT,3 h,16.1 s
same,Plat,3 h,107.7 x10_4/uL
same,RBC,3 h,608.6 x10_4/ul
same,Ret,3 h,8.8%
same,WBC,3 h,96.5 x10_2/uL
same,KIDNEY_L,3 h,0.9 g
same,KIDNEY_R,3 h,0.9 g
same,KIDNEY_TOTAL,3 h,1.9 g
same,LIVER,3 h,10.2 g
same,A/G,3 h,1.2
same,ALP,3 h,1498 IU/L
same,ALT,3 h,45.2 IU/L
same,AST,3 h,77.4 IU/L
same,BUN,3 h,13.6 mg/dL
same,CRE,3 h,0.2 mg/dL
same,Ca,3 h,10.6 mg/dL
same,Cl,3 h,107 meq/L
same,DBIL,3 h,0 mg/dL
same,GLC,3 h,192 mg/dL
same,IP,3 h,8.5 mg/dL
same,K,3 h,4 meq/L
same,LDH,3 h,181.2 IU/L
same,Na,3 h,142 meq/L
same,PL,3 h,132.4 mg/dL
same,RALB,3 h,3 g/dL
same,TBIL,3 h,0.016 mg/dL
same,TC,3 h,77 mg/dL
same,TG,3 h,62.8 mg/dL
same,TP,3 h,5.5 g/dL
same,gamma-GTP,3 h,1.6 IU/L
same,TERMINAL_BW,6 h,218.2 g
same,APTT,6 h,22.4 s
same,Bas,6 h,0%
same,Eos,6 h,0.8%
same,Fbg,6 h,305.2 mg/dL
same,Hb,6 h,12.9 g/dL
same,Ht,6 h,39.5%
same,Lym,6 h,78.4%
same,MCH,6 h,20.6 pg
same,MCHC,6 h,32.7%
same,MCV,6 h,63.1 fL
same,Mono,6 h,2.8%
same,Neu,6 h,17.2%
same,PT,6 h,16 s
same,Plat,6 h,113.7 x10_4/uL
same,RBC,6 h,627.6 x10_4/ul
same,Ret,6 h,7.8%
same,WBC,6 h,112.2 x10_2/uL
same,KIDNEY_L,6 h,1 g
same,KIDNEY_R,6 h,1 g
same,KIDNEY_TOTAL,6 h,2 g
same,LIVER,6 h,9.4 g
same,A/G,6 h,1.3
same,ALP,6 h,1119.6 IU/L
same,ALT,6 h,37.4 IU/L
same,AST,6 h,70.2 IU/L
same,BUN,6 h,10.4 mg/dL
same,CRE,6 h,0.2 mg/dL
same,Ca,6 h,10.5 mg/dL
same,Cl,6 h,105.2 meq/L
same,DBIL,6 h,0 mg/dL
same,GLC,6 h,192.4 mg/dL
same,IP,6 h,9.2 mg/dL
same,K,6 h,4.2 meq/L
same,LDH,6 h,187.6 IU/L
same,Na,6 h,140.6 meq/L
same,PL,6 h,125 mg/dL
same,RALB,6 h,3 g/dL
same,TBIL,6 h,0.028 mg/dL
same,TC,6 h,72 mg/dL
same,TG,6 h,66.2 mg/dL
same,TP,6 h,5.4 g/dL
same,gamma-GTP,6 h,1.4 IU/L
same,TERMINAL_BW,9 h,213.9 g
same,APTT,9 h,22.8 s
same,Bas,9 h,0%
same,Eos,9 h,0.8%
same,Fbg,9 h,311 mg/dL
same,Hb,9 h,12.9 g/dL
same,Ht,9 h,40.1%
same,Lym,9 h,77.2%
same,MCH,9 h,20.7 pg
same,MCHC,9 h,32.2%
same,MCV,9 h,64.1 fL
same,Mono,9 h,2.4%
same,Neu,9 h,19.6%
same,PT,9 h,16.2 s
same,Plat,9 h,105.6 x10_4/uL
same,RBC,9 h,625.4 x10_4/ul
same,Ret,9 h,8%
same,WBC,9 h,86.8 x10_2/uL
same,KIDNEY_L,9 h,0.9 g
same,KIDNEY_R,9 h,0.9 g
same,KIDNEY_TOTAL,9 h,1.8 g
same,LIVER,9 h,8.7 g
same,A/G,9 h,1.3
same,ALP,9 h,1333.8 IU/L
same,ALT,9 h,35.6 IU/L
same,AST,9 h,66.2 IU/L
same,BUN,9 h,12.2 mg/dL
same,CRE,9 h,0.2 mg/dL
same,Ca,9 h,10.5 mg/dL
same,Cl,9 h,105.2 meq/L
same,DBIL,9 h,0 mg/dL
same,GLC,9 h,188.8 mg/dL
same,IP,9 h,9.4 mg/dL
same,K,9 h,4.2 meq/L
same,LDH,9 h,133.6 IU/L
same,Na,9 h,141.6 meq/L
same,PL,9 h,122 mg/dL
same,RALB,9 h,3 g/dL
same,TBIL,9 h,0.02 mg/dL
same,TC,9 h,66.2 mg/dL
same,TG,9 h,53.2 mg/dL
same,TP,9 h,5.5 g/dL
same,gamma-GTP,9 h,1 IU/L
same,TERMINAL_BW,24 h,223.6 g
same,APTT,24 h,20.9 s
same,Bas,24 h,0%
same,Eos,24 h,1%
same,Fbg,24 h,304 mg/dL
same,Hb,24 h,13 g/dL
same,Ht,24 h,40.2%
same,Lym,24 h,78.4%
same,MCH,24 h,20.6 pg
same,MCHC,24 h,32.3%
same,MCV,24 h,63.6 fL
same,Mono,24 h,2%
same,Neu,24 h,17.6%
same,PT,24 h,16.4 s
same,Plat,24 h,128.5 x10_4/uL
same,RBC,24 h,632.6 x10_4/ul
same,Ret,24 h,6.7%
same,WBC,24 h,88.8 x10_2/uL
same,KIDNEY_L,24 h,1 g
same,KIDNEY_R,24 h,1 g
same,KIDNEY_TOTAL,24 h,1.9 g
same,LIVER,24 h,9.9 g
same,A/G,24 h,1.3
same,ALP,24 h,1840.4 IU/L
same,ALT,24 h,49.8 IU/L
same,AST,24 h,73.8 IU/L
same,BUN,24 h,15.6 mg/dL
same,CRE,24 h,0.2 mg/dL
same,Ca,24 h,10.7 mg/dL
same,Cl,24 h,107 meq/L
same,DBIL,24 h,0 mg/dL
same,GLC,24 h,196.4 mg/dL
same,IP,24 h,7.6 mg/dL
same,K,24 h,4 meq/L
same,LDH,24 h,166 IU/L
same,Na,24 h,143.2 meq/L
same,PL,24 h,130.6 mg/dL
same,RALB,24 h,3.1 g/dL
same,TBIL,24 h,0.008 mg/dL
same,TC,24 h,70 mg/dL
same,TG,24 h,74.6 mg/dL
same,TP,24 h,5.6 g/dL
same,gamma-GTP,24 h,1.8 IU/L
